The results in this text go back to PubChem BioAssay (NCI).

What all share (assay): growth of human tumour cells (NCI), 48 h
The test system of test [1] is MALME-3M melanoma.
Test [2] deals with NCI-H226 lung.
For test [3], the system named is RPMI-8226 leukemia.
Test [4] deals with OVCAR-3 ovarian.
For test [5], the system named is UO-31 renal.
Test [6] concerns OVCAR-4 ovarian.
The subject of test [7] is M14 melanoma.
Test [8] relates to NCI-H522 lung.
The subject of test [9] is HT29 colon.
Test [10] deals with MDA-MB-231 breast.
Test [11] relates to SF-268 CNS.
The subject of test [12] is BT-549 breast.
Test [13] has as its system MDA-MB-435.
Test [14] relates to SF-539 CNS.
Test [15] has as its system NCI-H460 lung.
Test [16] relates to SF-295 CNS.
Test [17] has as its system UACC-257 melanoma.

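Tested at 5 concentrations; 48 h exposure; 96-well plates; endpoints linearly interpolated, else capped at highest concentration. TGI denotes the concentration required for complete inhibition of growth.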

As for `N/C(=N\N=C\c1nc2ccccc2o1)c1cnccn1`, the TGI in [1] was 4.38 µM; in test [2], over 100 µM; in [3], over 100 µM; in test [4], over 100 µM; in test [5], over 100 µM; in [6] it was over 100 µM. In addition, the TGI in [7], in test [8], in [9], in [10], in test [11] and in test [12] was over 100 µM each time. The TGI in [13], in test [14], in [15], in test [16] and in test [17] was over 100 µM throughout.
With `C(=NC12CC3CC(CC(C3)C1)C2)C1CCCCC1`, the TGI in test [1], in test [2], in test [3], in [4], in test [5] and in test [6] was over 100 µM in each case. Also, the TGI in test [7], in test [8], in test [9], in test [10], in test [11] and in test [12] was over 100 µM throughout. Also, the TGI in test [13], in [14], in [15], in [16] and in test [17] was over 100 µM throughout.
As to `CCCCCC(=O)OC[n+]1cccc(-c2c(COC(=O)NC(C)C)c(COC(=O)NC(C)C)c3n2CCC3)c1`, the TGI in test [1], in test [2], in test [3], in [4], in test [5] and in test [6] was over 100 µM each time. For the same molecule, the TGI was over 100 µM in [7]; 25.2 µM in test [8]; over 100 µM in test [9]; over 100 µM in test [10]; over 100 µM in test [11]; over 100 µM in test [12]. For the same molecule, the TGI in test [13] is over 100 µM; in test [14] it was over 72.5 µM; in test [15], over 100 µM; in test [16], over 100 µM; in test [17] it was over 100 µM.
Take `NS(=O)(=O)c1c(O)c2ccccc2oc1=O`: the TGI in test [1], in [2], in test [3], in test [4], in [5] and in test [6] was over 100 µM each time. The TGI in test [7], in test [8], in [9], in test [10], in [11] and in test [12] was over 100 µM throughout. Besides, the TGI in test [13], in test [14], in test [15], in [16] and in test [17] was over 100 µM each time.
As for `COC(=O)C(=O)C(C(=O)C(=O)Nc1cccc(OC)c1)c1nc2ccc(Cl)cc2[nH]c1=O` (centres undefined), the TGI in test [1], in test [2], in [3], in test [4], in test [5] and in test [6] was over 100 µM each time. In addition, the TGI in [7], in test [8], in test [9], in [10], in [11] and in [12] was over 100 µM throughout. Besides, the TGI in [13], in test [14], in test [15], in test [16] and in test [17] was over 100 µM each time.
Take `CCOc1ccc(NC(=O)C(=O)C(/C(=N/N)C(=O)OC)c2nc3ccc([N+](=O)[O-])cc3[nH]c2=O)cc1` (centres undefined): the TGI in [1], in [2], in test [3], in [4], in test [5] and in [6] was over 100 µM each time. Also, the TGI in test [7], in test [8], in test [9], in test [10], in test [11] and in test [12] was over 100 µM each time. Also, the TGI in test [13], in test [14], in test [15], in test [16] and in [17] was over 100 µM each time.
As to `Fc1ccc2c(c1)SC1=Nc3sc4cc(F)ccc4[n+]3CN12`, the TGI in test [1] stood at 47.1 µM; in test [2], 56.8 µM; in test [3], 8.45 µM; in test [4], 36 µM; in [5], 74.3 µM; in [6], 72.4 µM. Further, the TGI in [7] is over 100 µM; in [8], 35.2 µM; in test [9] it was over 100 µM; in test [10] it was 44.3 µM; in test [11] it was over 100 µM; in [12], 43.6 µM. The TGI in test [13] is over 100 µM; in test [14] it was 28.3 µM; in [15], over 100 µM; in [16], 74 µM; in test [17], 92.1 µM.
With `CC[C@@H]1CC[C@@H]2[C@H](CC[C@]3(C)[C@@H](O[N+](=O)[O-])CC[C@@H]23)[C@H]1C(C)=O`, the TGI in test [1] was 65.3 µM; in [2] it was over 100 µM; in test [3], 49.9 µM; in test [4], over 100 µM; in test [5] it was over 100 µM; in test [6], over 100 µM. Also, the TGI was over 100 µM in [7]; 80.9 µM in [8]; 33.4 µM in test [9]; 75.1 µM in test [10]; over 100 µM in test [11]; over 100 µM in [12]. Moreover, the TGI in test [13] is over 100 µM; in test [14], over 100 µM; in test [15] it was 76 µM; in test [16], over 100 µM; in [17], 55 µM.
Take `CC(C)(C)OC(=O)/N=C/c1c(O)c2ccccc2oc1=O`: the TGI in test [1] was over 100 µM; in test [2] it was 64.7 µM; in [3] it was over 100 µM; in test [4], over 100 µM; in test [5] it was over 100 µM; in test [6], over 100 µM. In addition, the TGI is over 100 µM in [7]; 0.0208 µM in test [8]; over 100 µM in test [9]; 86 µM in [10]; over 100 µM in test [11]; over 100 µM in test [12]. In addition, the TGI in test [13], in test [14], in test [15], in [16] and in test [17] was over 100 µM in each case.
On to `Cc1nc2ccc(S(=O)(=O)O)cc2c(=O)n1-c1ccc(C(=O)NN2C(=O)C(Cl)C2c2cccs2)cc1` (centres undefined), for which the TGI in test [1] is over 100 µM; in [2], over 100 µM; in test [3], over 100 µM; in test [4], over 100 µM; in test [5], over 100 µM; in test [6], 79.7 µM. In addition, the TGI was 41.4 µM in test [7]; over 100 µM in test [8]; over 100 µM in test [9]; 45.1 µM in test [10]; 44.3 µM in [11]; over 100 µM in test [12]. The TGI was 89.8 µM in test [13]; over 100 µM in [14]; over 100 µM in test [15]; over 100 µM in test [16]; over 100 µM in [17].
On to `Nc1ccc2c(=S)c3ccccc3[nH]c2c1`, for which the TGI in [1], in test [2], in test [3], in test [4], in test [5] and in test [6] was over 100 µM each time. Besides, the TGI was over 83.3 µM in [7]; 79.2 µM in [8]; over 100 µM in test [9]; over 100 µM in [10]; over 100 µM in test [11]; over 100 µM in [12]. Besides, the TGI in test [13], in [14], in [15], in [16] and in test [17] was over 100 µM each time.
On to `NC(CCC(=O)O)C(=O)NC(Cc1ccc(N(CCCl)CCCl)cc1)C(=O)O` (centres undefined), for which the TGI in [1], in test [2], in test [3], in test [4], in [5] and in test [6] was over 100 µM throughout. Further, the TGI in test [7], in [8], in [9], in [10], in test [11] and in [12] was over 100 µM in each case. The TGI in test [13], in test [14], in [15], in test [16] and in test [17] was over 100 µM throughout.
